Test results from US7507727B2, “Substituted quinobenzoxazine analogs and methods of using thereof” (Cylene Pharmaceuticals, Inc., priority 2003, dated 2009).
Several values for one entry are separate records, joined by “and”; a condition that tells them apart may be missing. Equal entries are not always repeated. Where two headings read alike, the source gives them in different places.

What was measured:
[1] = system: Escherichia coli (WP2-uvrA−); assay: Bacterial mutagenicity test (Ames assay); conditions: E. coli WP2-uvrA−, with and without S9
Protocol: The test article was dissolved in 5% dextrose.
The pH was then adjusted to 3.53.
94720. […] (ATCC numbers: 29629 and 49979, respectively).
Genotype tests were performed.
Both endpoints serve as toxicity indicators in this assay.

[2] = system: Salmonella typhimurium (TA97a, TA98, TA100, TA102, TA1535); conditions: for FI / TA100 colony count (Rep 1-3) / TA100 colony count, Mean: dose range
Protocol: This Mutagenicity Assessment (Ames Assay) evaluated the potential of the test article extracts to induce histidine (his) reversion in S. typhimurium (his− to his+) or tryptophan (trp) reversion in E. coli (trp− to trp+) caused by base changes or frameshift mutations in the genome of tester organisms.
This plate incorporation assay was conducted with five strains of Salmonella typhimurium (TA97a, TA98, TA100, TA102, and TA1535) and one strain of Escherichia coli (WP2-uvrA^−) in the presence and absence of an exogenous mammalian activation system (S9). The test article was dissolved in 5% dextrose. A series of dilutions were then prepared in saline just prior to testing. A Range Finding Study was conducted for this assay to determine the appropriate doses for definitive mutagenicity assessment.
A stock solution of test article was prepared at 20.0 mg/mL as follows: 1.0 g test article was added to 15.0 mL of 0.1 HCl for 1 minute. The test article was stirred for 15 minutes at room temperature. Next 33.0 mL of deionized water was added and allowed to stir for 30 minutes. […] Lower doses were prepared by dilution in 5% dextrose from this stock immediately prior to use. To minimize any change of degradation, the test article solutions were kept on ice after preparation and until just prior to dosing procedures. The test article was administered in vitro, through a solvent compatible with the test system.
This assay has historically been used to detect mutation in a gene of a histidine requiring strain to produce a histidine independent strain or concordantly, to detect mutation in a gene of a tryptophan requiring strain to produce a tryptophan independent strain.
S. typhimurium strain TA1535 and E. coli strain Wp2-uvrA^− were received from American Type Culture Collection, Manassas, Va. […] All working stocks of test strains will be confirmed for genotypic markers and acceptable reversion rates.
Master plates of the tester strains were prepared from frozen working stocks. To create working cultures for each bacterial strain used in the assay, a single colony was transferred from the master plate into Oxoid nutrient broth and incubated, with shaking, at 37±2° C. until an optical density (at 650 nm) of 0.6-1.6 was reached. This overnight culture was used for the mutagenicity test and for genotypic confirmation. Genotype tests were performed.
For both the dose range and mutagenicity test, a top agar consisting of 0.6% Difco agar in 0.5% NaCl was melted and a solution of 0.5 mM L-histidine/0.5 mM biotin or 0.5 mM L-tryptophan was added to the melted top agar at a ratio of 10 mL per 100 mL agar, as required. The supplemented agar was aliquotted, 2 mL per tube and held at 45-47° C. To prepare the top agar for treatment, 0.1 mL of the test article or control, 0.1 mL of the bacterial culture and 0.5 mL of phosphate buffered saline were added to the molten agar. […] Metabolic activation was provided by adding 0.5 mL of the S9 mix in place of the PBS. […] All plates were counted using an automatic image analysis system. Negative control and test article treated plates were also examined for the presence of a bacterial lawn.
The in vitro metabolic activation system used in this assay was comprised of Sprague Dawley rat liver enzymes and a cofactor pool. […] Immediately prior to use, the S9 was thawed and mixed with a cofactor pool to contain 5% S9, 5 mM glucose 6-phosphate, 4 mM β-nicotine-adenine dinucleotide phosphate, 8 mM MgCl2 and 33 mM KCl in a 200 mM phosphate buffer at pH 7.4. The S9 was purchased from Moltox (Boone, N.C.) and maintained frozen at less than −70° C.
For the definitive assay, three dose levels were chosen ([…], and 5.0 mg/mL). This was equivalent to 2.0, 1.0, and 0.5 mg/plate. All treatments, including negative and positive control, were plated in triplicate against test strains TA97a, TA98, TA100, TA102, TA1535, and WP2-uvrA^− in the presence and absence of metabolic activation.

[3] = TA100, with S9 activation, 0.125 mg/plate
[4] = TA100, with S9 activation, 0.25 mg/plate
[5] = TA100, with S9 activation, 0.5 mg/plate
[6] = TA100, with S9 activation, 1.0 mg/plate
[7] = TA100, with S9 activation, 2.0 mg/plate
[8] = TA100, without S9 activation, 0.125 mg/plate
[9] = TA100, without S9 activation, 0.25 mg/plate
[10] = TA100, without S9 activation, 0.5 mg/plate
[11] = TA100, without S9 activation, 1.0 mg/plate
[12] = TA100, without S9 activation, 2.0 mg/plate

CN1CCCC1CCNC(=O)c1cn2c3c(c(N4CCC(c5cnccn5)C4)c(F)cc3c1=O)Oc1cc3ccccc3cc1-2 (centres unmarked) [CX-3543]
mutagenicity (reversion rates) [1]: non-mutagenic | mutagenicity (reversion rates) ([2]; S. typhimurium, with and without S9): non-mutagenic | FI [2, 3]: 1.5 | TA100 colony count (Rep 1-3) [2, 3]: 175 and 177 | TA100 colony count, Mean [2, 3]: 175.7 | FI [2, 4]: 1.5 | TA100 colony count (Rep 1-3) [2, 4]: 185 and 177 and 189 | TA100 colony count, Mean [2, 4]: 183.7 | FI [2, 5]: 1.6 | TA100 colony count (Rep 1-3) [2, 5]: 182 and 190 and 193 | TA100 colony count, Mean [2, 5]: 188.3 | FI [2, 6]: 1.4 | TA100 colony count (Rep 1-3) [2, 6]: 175 and 147 and 168 | TA100 colony count, Mean [2, 6]: 163.3 | FI [2, 7]: 1.1 | TA100 colony count (Rep 1-3) [2, 7]: 111 and 131 and 137 | TA100 colony count, Mean [2, 7]: 126.3 | FI [2, 8]: 1.1 | TA100 colony count (Rep 1-3) [2, 8]: 153 and 144 and 135 | TA100 colony count, Mean [2, 8]: 144.0 | FI [2, 9]: 1.1 | TA100 colony count (Rep 1-3) [2, 9]: 154 and 148 and 146 | TA100 colony count, Mean [2, 9]: 149.3 | FI [2, 10]: 1.1 | TA100 colony count (Rep 1-3) [2, 10]: 161 and 154 and 137 | TA100 colony count, Mean [2, 10]: 150.7 | FI [2, 11]: 1.0 | TA100 colony count (Rep 1-3) [2, 11]: 147 and 120 and 134 | TA100 colony count, Mean [2, 11]: 133.7 | FI [2, 12]: 0.9 | TA100 colony count (Rep 1-3) [2, 12]: 126 and 117 and 122 | TA100 colony count, Mean [2, 12]: 121.7
